Assay results from patent US12539273B2, “External nano liniment for gout and preparation method thereof” (priority 2021, dated 2026).
Like-named read-outs stand apart in the source and are kept apart here.

Columns and labels:
patients with gout = assay: Preliminary human trial of preparation: crystal dissolution of gout crystals; type: in vivo
Experimental: The prepared nano liniment was applied to some patients with gout on trial. The gout treatment effect was obvious. The local application dosage was far below the dosage of the same oral medicine. The total dosage was safe.
Method of application: the nano liniment was applied to the gout parts (most foot joints, some hand joints or other parts) twice a day (every morning and evening), 1 ml of the corresponding nano liniment was applied every time, the gout (crystal) parts were photographed at different points in time before and after the nano liniment was applied, and the blood uric acid concentration (i.e. the uric acid value under fasting) of some patients with obvious crystal dissolution and lump elimination was also determined as a reference.

[1] = cited from earlier work; for cardiovascular and cerebrovascular and all-cause mortality: oral administration, statistic average period of 1 year

Compound: OCc1ccc(O[C@@H]2O[C@H](CO)[C@@H](O)[C@H](O)[C@H]2O)cc1 [4-hydroxymethyl phenyl-beta-D-glucopyranoside]
- analgesic effect (patients with gout; finding of the study, gout): good analgesic effect
- gout treatment effect (patients with gout; patients with gout on trial): good treatment effect on gout

Compound: Oc1ncnc2[nH]ncc12 [Allopurinol]
- cardiovascular and cerebrovascular and all-cause mortality [1]: mortality reaches up to 3.3%).
- cardiovascular and cerebrovascular and all-cause mortality ([1]; listed as allopurinol): 3.3%

Compound: Cc1nc(-c2ccc(OCC(C)C)c(C#N)c2)sc1C(=O)O [Febuxostat]
- cardiovascular and cerebrovascular and all-cause mortality [1]: reaches up to 4.1%).
- cardiovascular and cerebrovascular and all-cause mortality ([1]; listed as febuxostat): 4.1%

Compound: N#Cc1cc(-c2n[nH]c(-c3ccncc3)n2)ccn1 [Topiroxostat]
- Side effects ([1]; oral tablet, marketed gout medicine): effect on the liver and bile.
